Where a name gives a salt, the structure may show the parent alone.
Experiments:
[1] = Weight loss (release) on storage, 6 days at 65° C.; assay type: physicochemical; conditions: for Weight loss: 6 days 65° C.
Description: As shown by the comparison above, the amount released into the environment during a storage period of 6 days at 65° C. of, for example, TBT-HDO, is nearly six times higher than in the case of DBT-HDO according to the invention.

Escherichia coli = assay: Agar diffusion test, Escherichia coli; assay type: cell-based; conditions: 0: no inhibition action
Description: (§1) DST agar was inoculated with 1 drop of a Muller-Hinton broth of the test organisms, diluted 1 : 10. After a prediffusion period of 2 hours at 22° C., the paper filters which had been soaked with solutions of active substance of various concentrations were placed on the agar. The inhibition zones (distance of the cloudy area from the edge of the paper filter in mm) were determined after an incubation time of 24 hours.

Poria monticola = assay: Filter disk test, Poria monticola; assay type: cell-based; conditions: 3 weeks, +30° C.
Description: (§2) The inhibition action against fungi, of the products according to the invention, was tested using the "filter disk test" (cf. Table 2). For this purpose, paper filter disks (.phi. 5.5 cm) were soaked in ethanolic solutions containing various amounts of active substance. After the filters had dried under room conditions, they were placed on Petri dishes containing plate-count agar which had been inoculated with a spore suspension. The nutrient medium used was biomalt agar 8° Bg, and the dishes were incubated for 3 weeks at +30° C. Thereafter, the sizes of the inhibition zones (distance of the fungal growth from the edge of the filter, in mm) around the samples were determined.

Lentinus lepideus = assay: Filter disk test, Lentinus lepideus; assay type: cell-based; conditions: 3 weeks, +30° C.
Description: as §2

Coniophora puteana = assay: Wood block test against Coniophora puteana after leaching treatment (DIN 52 176, DIN EN 84); conditions: lower: highest amount with attack (weight loss>3%); higher: lowest amount without attack; 16 weeks, 22° C.
Source text: To compare the fungicidal action against Basidiomycetes, small blocks made of pine sapwood (5 cm×2.5 cm×1.5 cm, direction of fiber: 5 cm) were soaked with solutions of graduated concentrations of the active substance DBT-HDO (cf. Example 1) in acetone, based on DIN 52 176.
For comparison reasons, the starting materials di-n-butyltin dichloride and the K salt of N-cyclohexyl-N'-hydroxydiazenium oxide were included in the investigations.
The soaked blocks were kept for 4 weeks in an environmentally-controlled chamber at an air temperature of 20° C. and a relative atmospheric humidity of 65%. They were then subjected to a leaching procedure in accordance with DIN EN 84. […] The effect of the fungi on the individual blocks was determined by calculating the weight losses (based on the dry weights). The limits which were determined in this way and which are expressed by two figures, the lower of which being the highest amount of protective agent (in kg/m^3 of wood) at which an attack still took place (weight loss>3%), and the higher denoting the lowest amount from which an attack no longer took place, are listed in Table 3.

Paecilomyces varioti = assay: Filter disk test, Paecilomyces varioti; assay type: cell-based; conditions: 3 weeks, +30° C.
Description: as §2

Cladosporum herbarum = assay: Filter disk test, Cladosporum herbarum; assay type: cell-based; conditions: 3 weeks, +30° C.
Description: as §2

Staphilococcus aureaus = assay: Agar diffusion test, Staphilococcus aureaus; assay type: cell-based; conditions: 0: no inhibition action
Description: as §1

Daphnia = assay: EC50 in Daphnia (DIN 38412, Part 12); assay type: in vivo
Source text: **Determination in accordance with DIN 38412, Part 12.

Proteus vulgaris = assay: Agar diffusion test, Proteus vulgaris; assay type: cell-based; conditions: 0: no inhibition action
Description: as §1

Bacillus subtilis = assay: Agar diffusion test, Bacillus subtilis; assay type: cell-based; conditions: 0: no inhibition action
Description: as §1

Orfes = assay: EC50 in Orfes (DIN 38412, Part 15); assay type: in vivo
Source text: *Determination in accordance with DIN 38412, Part 15

bacteria and fungi = conditions: prior art; cited from earlier work
rats = assay: LD50 oral (rats); assay type: in vivo
[2] = 0.1% active substance in soaking solution
[3] = 0.3% active substance in soaking solution
[4] = 0.5% active substance in soaking solution

## CCC[CH2][Sn]([CH2]CCC)([O]N(N=O)C1CCCCC1)[O]N(N=O)C1CCCCC1 [DBT-HDO, bis(N-cyclohexyldiazeniumdioxy)di-n-butyltin]
[1]
  Weight loss: 2.3%
Escherichia coli; [2]
  inhibition zone: 0 mm
Escherichia coli; [3]
  inhibition zone: 2 mm
Escherichia coli; [4]
  inhibition zone: 3 mm
Poria monticola; 0.5% content of the solution
  inhibition zone (IZ): 6-8 mm
Poria monticola; 1% content of the solution
  inhibition zone (IZ): 12-12 mm
Poria monticola; 2% content of the solution
  inhibition zone (IZ): 12-15 mm
Lentinus lepideus; 0.5% content of the solution
  inhibition zone (IZ): > 15 mm
Lentinus lepideus; 1% content of the solution
  inhibition zone (IZ): > 15 mm
Lentinus lepideus; 2% content of the solution
  inhibition zone (IZ): > 15 mm
Coniophora puteana
  Limits against Coniophora puteana after leaching treatment: 0.51-0.88 kg of product per m^3 of wood
Paecilomyces varioti; 0.5% content of the solution
  inhibition zone (IZ): 6-8 mm
Paecilomyces varioti; 1% content of the solution
  inhibition zone (IZ): 8-10 mm
Paecilomyces varioti; 2% content of the solution
  inhibition zone (IZ): 10-12 mm
Cladosporum herbarum; 0.5% content of the solution
  inhibition zone (IZ): 3-5 mm
Cladosporum herbarum; 1% content of the solution
  inhibition zone (IZ): 5-6 mm
Cladosporum herbarum; 2% content of the solution
  inhibition zone (IZ): 8-10 mm
Staphilococcus aureaus; [2]
  inhibition zone: 8 mm
Staphilococcus aureaus; [3]
  inhibition zone: 10 mm
Staphilococcus aureaus; [4]
  inhibition zone: 10 mm
Daphnia
  EC50 in Daphnia: 4.9 mg/l of water
Proteus vulgaris; [2]
  inhibition zone: 12 mm
Proteus vulgaris; [3]
  inhibition zone: 13 mm
Proteus vulgaris; [4]
  inhibition zone: 12 mm
Bacillus subtilis; [2]
  inhibition zone: 6 mm
Bacillus subtilis; [3]
  inhibition zone: 11 mm
Bacillus subtilis; [4]
  inhibition zone: 15 mm
Orfes
  EC50 in Orfes: 0.18 mg/l of water

## CCCCCCC[CH2][Sn]([CH2]CCCCCCC)([O]N(N=O)C1CCCCC1)[O]N(N=O)C1CCCCC1 [DOT-HDO, bis(N-cyclohexyldiazeniumdioxy)di-n-octyltin]
Poria monticola; 0.5% content of the solution
  inhibition zone (IZ): 5-6 mm
Poria monticola; 1% content of the solution
  inhibition zone (IZ): 8-10 mm
Poria monticola; 2% content of the solution
  inhibition zone (IZ): 8-10 mm
Lentinus lepideus; 0.5% content of the solution
  inhibition zone (IZ): > 15 mm
Lentinus lepideus; 1% content of the solution
  inhibition zone (IZ): > 15 mm
Lentinus lepideus; 2% content of the solution
  inhibition zone (IZ): > 15 mm
Paecilomyces varioti; 0.5% content of the solution
  inhibition zone (IZ): 5-6 mm
Paecilomyces varioti; 1% content of the solution
  inhibition zone (IZ): 8-10 mm
Paecilomyces varioti; 2% content of the solution
  inhibition zone (IZ): 10-12 mm
Cladosporum herbarum; 0.5% content of the solution
  inhibition zone (IZ): 10-12 mm
Cladosporum herbarum; 1% content of the solution
  inhibition zone (IZ): 12-15 mm
Cladosporum herbarum; 2% content of the solution
  inhibition zone (IZ): > 15 mm

## CCCC[CH2][Sn]([CH2]CCCC)([O]N(N=O)C1CCCCC1)[O]N(N=O)C1CCCCC1 [DPT-HDO, bis(N-cyclohexyldiazeniumdioxy)di-n-pentyltin]
Poria monticola; 0.5% content of the solution
  inhibition zone (IZ): 6-8 mm
Poria monticola; 1% content of the solution
  inhibition zone (IZ): 8-10 mm
Poria monticola; 2% content of the solution
  inhibition zone (IZ): 10-12 mm
Lentinus lepideus; 0.5% content of the solution
  inhibition zone (IZ): > 15 mm
Lentinus lepideus; 1% content of the solution
  inhibition zone (IZ): > 15 mm
Lentinus lepideus; 2% content of the solution
  inhibition zone (IZ): > 15 mm
Paecilomyces varioti; 0.5% content of the solution
  inhibition zone (IZ): 6-8 mm
Paecilomyces varioti; 1% content of the solution
  inhibition zone (IZ): 8-10 mm
Paecilomyces varioti; 2% content of the solution
  inhibition zone (IZ): 10-12 mm
Cladosporum herbarum; 0.5% content of the solution
  inhibition zone (IZ): 2-3 mm
Cladosporum herbarum; 1% content of the solution
  inhibition zone (IZ): 5-7 mm
Cladosporum herbarum; 2% content of the solution
  inhibition zone (IZ): 6-8 mm

## CCC[CH2][Sn]([Cl])([Cl])[CH2]CCC [Di-n-butyltin dichloride]
Lentinus lepideus; 1% content of the solution
  Growth: + +

## [O-][N+](=NO)C1CCCCC1 [K-HDO, potassium salt of N-cyclohexyl-N'-hydroxydiazenium oxide]
Escherichia coli; Escherichia coli, 24 h, 0.1% active substance in soaking solution
  zone of inhibition at 0.1 % strength: 0 mm
Escherichia coli; Escherichia coli, 24 h, 0.3% active substance in soaking solution
  zone of inhibition at 0.3 % strength: 0 mm
Escherichia coli; Escherichia coli, 24 h, 0.5% active substance in soaking solution
  zone of inhibition at 0.5 % strength: 0 mm
Poria monticola; Poria monticola, 504 h, 0.5% content of the solution, read-out: inhibition zone (IZ)
  zone of inhibition at 0.5 %: 2 to 3 mm
Poria monticola; Poria monticola, 504 h, 1% content of the solution, read-out: inhibition zone (IZ)
  zone of inhibition at 1 %: 6 to 8 mm
Poria monticola; Poria monticola, 504 h, 2% content of the solution, read-out: inhibition zone (IZ)
  zone of inhibition at 2 %: 10 to 12 mm
Lentinus lepideus; Neolentinus lepideus, 504 h, 0.5% content of the solution, read-out: inhibition zone (IZ)
  zone of inhibition at 0.5 %: 4 to 6 mm
Lentinus lepideus; Neolentinus lepideus, 504 h, 1% content of the solution, read-out: inhibition zone (IZ)
  zone of inhibition at 1 %: 10 to 12 mm
Lentinus lepideus; Neolentinus lepideus, 504 h, 2% content of the solution, read-out: inhibition zone (IZ)
  zone of inhibition at 2 %: > 15 mm
Coniophora puteana
  Limits against Coniophora puteana after leaching treatment: 1.8-3.4 kg of product per m^3 of wood
Paecilomyces varioti; Paecilomyces, 504 h, 0.5% content of the solution, read-out: inhibition zone (IZ)
  zone of inhibition at 0.5 %: 5 to 7 mm
Paecilomyces varioti; Paecilomyces, 504 h, 1% content of the solution, read-out: inhibition zone (IZ)
  zone of inhibition at 1 %: 6 to 8 mm
Paecilomyces varioti; Paecilomyces, 504 h, 2% content of the solution, read-out: inhibition zone (IZ)
  zone of inhibition at 2 %: 8 to 10 mm
Cladosporum herbarum; 504 h, 0.5% content of the solution, read-out: inhibition zone (IZ)
  zone of inhibition at 0.5 %: 4 to 6 mm
Cladosporum herbarum; 504 h, 1% content of the solution, read-out: inhibition zone (IZ)
  zone of inhibition at 1 %: 8 to 10 mm
Cladosporum herbarum; 504 h, 2% content of the solution, read-out: inhibition zone (IZ)
  zone of inhibition at 2 %: 10 to 12 mm
Staphilococcus aureaus; 24 h, 0.1% active substance in soaking solution
  zone of inhibition at 0.1 % strength: 8 mm
Staphilococcus aureaus; 24 h, 0.3% active substance in soaking solution
  zone of inhibition at 0.3 % strength: 14 mm
Staphilococcus aureaus; 24 h, 0.5% active substance in soaking solution
  zone of inhibition at 0.5 % strength: 19 mm
Proteus vulgaris; Proteus vulgaris, 24 h, 0.1% active substance in soaking solution
  zone of inhibition at 0.1 % strength: 0 mm
Proteus vulgaris; Proteus vulgaris, 24 h, 0.3% active substance in soaking solution
  zone of inhibition at 0.3 % strength: 0 mm
Proteus vulgaris; Proteus vulgaris, 24 h, 0.5% active substance in soaking solution
  zone of inhibition at 0.5 % strength: 0 mm
Bacillus subtilis; Bacillus subtilis, 24 h, 0.1% active substance in soaking solution
  zone of inhibition at 0.1 % strength: 4 mm
Bacillus subtilis; Bacillus subtilis, 24 h, 0.3% active substance in soaking solution
  zone of inhibition at 0.3 % strength: 4 mm
Bacillus subtilis; Bacillus subtilis, 24 h, 0.5% active substance in soaking solution
  zone of inhibition at 0.5 % strength: 9 mm

## CCC[CH2][Sn]([CH2]CCC)([CH2]CCC)[O]N(N=O)C1CCCCC1 [TBT-HDO]
[1]
  Weight loss: 12.8%
[1]; storage 6 days at 65° C., TBT-HDO vs DBT-HDO
  amount released into the environment, times higher than DBT-HDO: six
Escherichia coli; [2]
  inhibition zone: 0 mm
Escherichia coli; [3]
  inhibition zone: 0 mm
Escherichia coli; [4]
  inhibition zone: 0 mm
Poria monticola; 0.5% content of the solution
  inhibition zone (IZ): 7-9 mm
Poria monticola; 1% content of the solution
  inhibition zone (IZ): 15 mm
Poria monticola; 2% content of the solution
  inhibition zone (IZ): 15 mm
Lentinus lepideus; 0.5% content of the solution
  inhibition zone (IZ): > 15 mm
Lentinus lepideus; 1% content of the solution
  inhibition zone (IZ): > 15 mm
Lentinus lepideus; 2% content of the solution
  inhibition zone (IZ): > 15 mm
Paecilomyces varioti; 0.5% content of the solution
  inhibition zone (IZ): 10-12 mm
Paecilomyces varioti; 1% content of the solution
  inhibition zone (IZ): > 15 mm
Paecilomyces varioti; 2% content of the solution
  inhibition zone (IZ): > 15 mm
Cladosporum herbarum; 0.5% content of the solution
  inhibition zone (IZ): 10-12 mm
Cladosporum herbarum; 1% content of the solution
  inhibition zone (IZ): > 15 mm
Cladosporum herbarum; 2% content of the solution
  inhibition zone (IZ): > 15 mm
Staphilococcus aureaus; [2]
  inhibition zone: 28 mm
Staphilococcus aureaus; [3]
  inhibition zone: 32 mm
Staphilococcus aureaus; [4]
  inhibition zone: 24 mm
Daphnia
  EC50 in Daphnia: 0.020 mg/l of water
Bacteria and fungi
  biocidal activity: very good biocidal activity
Proteus vulgaris; [2]
  inhibition zone: 6 mm
Proteus vulgaris; [3]
  inhibition zone: 7 mm
Proteus vulgaris; [4]
  inhibition zone: 7 mm
rats
  LD50 oral (rats): 63 mg/kg of body wt.
Bacillus subtilis; [2]
  inhibition zone: 17 mm
Bacillus subtilis; [3]
  inhibition zone: 22 mm
Bacillus subtilis; [4]
  inhibition zone: 18 mm
Orfes
  EC50 in Orfes: 0.035 mg/l of water
